Key:
[1] = target: Calcium/calmodulin-dependent protein kinase type 1G (Homo sapiens) (UniProt Q96NX5); experiment: Inhibition of human recombinant CaMK1g at 40 nM in presence of ATP by radiometric assay relative to control
[2] = target: T1, Serine/threonine-protein kinase TBK1 (Homo sapiens) (UniProt Q9UHD2); experiment: Inhibition of human recombinant TBK1 at 40 nM in presence of ATP by radiometric assay relative to control
T1 sequence (whole entry): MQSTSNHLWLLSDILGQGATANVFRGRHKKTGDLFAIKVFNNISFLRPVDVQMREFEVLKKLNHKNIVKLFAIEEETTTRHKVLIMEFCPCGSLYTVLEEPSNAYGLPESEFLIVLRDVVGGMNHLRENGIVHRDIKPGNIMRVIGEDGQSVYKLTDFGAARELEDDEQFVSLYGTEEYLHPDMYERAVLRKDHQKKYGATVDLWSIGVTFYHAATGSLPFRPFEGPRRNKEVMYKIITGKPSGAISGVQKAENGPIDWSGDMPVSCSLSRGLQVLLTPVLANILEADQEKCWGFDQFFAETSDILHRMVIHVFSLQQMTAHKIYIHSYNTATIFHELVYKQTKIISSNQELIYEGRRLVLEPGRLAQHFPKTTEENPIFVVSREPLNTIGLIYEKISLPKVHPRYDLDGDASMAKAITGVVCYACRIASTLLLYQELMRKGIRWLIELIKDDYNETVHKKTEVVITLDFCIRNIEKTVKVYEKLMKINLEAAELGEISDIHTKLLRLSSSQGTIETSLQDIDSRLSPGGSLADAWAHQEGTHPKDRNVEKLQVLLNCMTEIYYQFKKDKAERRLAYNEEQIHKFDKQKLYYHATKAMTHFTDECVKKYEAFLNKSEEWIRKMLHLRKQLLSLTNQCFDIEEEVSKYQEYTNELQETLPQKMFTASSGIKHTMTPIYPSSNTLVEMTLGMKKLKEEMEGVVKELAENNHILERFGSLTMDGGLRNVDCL

[3] = target: Serine/threonine-protein kinase PAK 2 (Homo sapiens) (UniProt Q13177); experiment: Inhibition of human recombinant PAK2 at 40 nM related to control ULK1
[4] = target: MAP/microtubule affinity-regulating kinase 3 (Homo sapiens) (UniProt P27448); experiment: Inhibition of human recombinant MARK3 at 15 nM related to control ULK1
[5] = target: Platelet-derived growth factor receptor alpha (Homo sapiens) (UniProt P16234); experiment: Inhibition of human recombinant PDGFRa at 15 nM in presence of ATP by radiometric assay relative to control
[6] = target: T2, Mitogen-activated protein kinase kinase kinase 2 (Homo sapiens) (UniProt Q9Y2U5); experiment: Inhibition of human recombinant MAP3K2 at 15 nM in presence of ATP by radiometric assay relative to control
T2 sequence (whole entry): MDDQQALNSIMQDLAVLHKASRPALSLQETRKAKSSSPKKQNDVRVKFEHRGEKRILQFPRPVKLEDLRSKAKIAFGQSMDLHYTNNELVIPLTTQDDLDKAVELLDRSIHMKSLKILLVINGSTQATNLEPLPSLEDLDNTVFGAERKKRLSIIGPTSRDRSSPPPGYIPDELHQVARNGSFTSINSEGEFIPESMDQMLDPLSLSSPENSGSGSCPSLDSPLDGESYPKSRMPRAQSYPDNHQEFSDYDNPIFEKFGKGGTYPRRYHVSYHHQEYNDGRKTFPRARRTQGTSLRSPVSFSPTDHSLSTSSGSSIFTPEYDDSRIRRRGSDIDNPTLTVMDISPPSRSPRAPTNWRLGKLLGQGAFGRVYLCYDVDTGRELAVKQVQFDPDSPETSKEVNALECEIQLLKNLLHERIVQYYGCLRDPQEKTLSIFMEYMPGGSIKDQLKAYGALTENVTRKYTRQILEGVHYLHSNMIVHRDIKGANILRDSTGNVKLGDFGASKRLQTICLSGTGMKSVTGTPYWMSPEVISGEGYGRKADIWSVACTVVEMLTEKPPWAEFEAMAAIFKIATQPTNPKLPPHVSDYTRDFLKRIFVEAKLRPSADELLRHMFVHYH

[7] = target: T3, Inhibitor of nuclear factor kappa-B kinase subunit beta (Homo sapiens) (UniProt O14920); experiment: Inhibition of human recombinant IKKb at 15 nM in presence of ATP by radiometric assay relative to control
T3 sequence (whole entry): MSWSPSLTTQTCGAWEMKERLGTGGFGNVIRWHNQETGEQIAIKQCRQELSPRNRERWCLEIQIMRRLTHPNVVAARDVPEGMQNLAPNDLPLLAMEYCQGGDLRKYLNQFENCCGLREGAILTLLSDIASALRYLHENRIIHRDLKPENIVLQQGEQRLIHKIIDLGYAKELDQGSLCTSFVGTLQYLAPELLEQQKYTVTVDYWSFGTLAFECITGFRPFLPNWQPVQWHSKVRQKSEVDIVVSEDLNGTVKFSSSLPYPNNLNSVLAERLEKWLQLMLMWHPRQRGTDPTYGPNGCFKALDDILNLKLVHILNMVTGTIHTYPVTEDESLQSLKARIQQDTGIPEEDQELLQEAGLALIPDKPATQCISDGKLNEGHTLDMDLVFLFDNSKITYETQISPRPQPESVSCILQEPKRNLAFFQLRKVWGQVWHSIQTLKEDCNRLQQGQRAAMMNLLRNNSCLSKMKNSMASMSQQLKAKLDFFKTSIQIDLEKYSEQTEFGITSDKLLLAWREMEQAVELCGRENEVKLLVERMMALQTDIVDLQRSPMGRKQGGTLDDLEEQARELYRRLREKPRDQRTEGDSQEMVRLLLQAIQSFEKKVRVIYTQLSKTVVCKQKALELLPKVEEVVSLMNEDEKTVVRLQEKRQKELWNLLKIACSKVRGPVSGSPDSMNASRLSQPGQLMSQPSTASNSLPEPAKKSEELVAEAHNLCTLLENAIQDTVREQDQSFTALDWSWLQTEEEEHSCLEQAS

[8] = target: Mitogen-activated protein kinase 10 (Homo sapiens) (UniProt P53779); experiment: Inhibition of human recombinant JNK3 at 500 nM in presence of ATP by radiometric assay relative to control
Sequence of Mitogen-activated protein kinase 10 (Homo sapiens) (P53779 whole entry): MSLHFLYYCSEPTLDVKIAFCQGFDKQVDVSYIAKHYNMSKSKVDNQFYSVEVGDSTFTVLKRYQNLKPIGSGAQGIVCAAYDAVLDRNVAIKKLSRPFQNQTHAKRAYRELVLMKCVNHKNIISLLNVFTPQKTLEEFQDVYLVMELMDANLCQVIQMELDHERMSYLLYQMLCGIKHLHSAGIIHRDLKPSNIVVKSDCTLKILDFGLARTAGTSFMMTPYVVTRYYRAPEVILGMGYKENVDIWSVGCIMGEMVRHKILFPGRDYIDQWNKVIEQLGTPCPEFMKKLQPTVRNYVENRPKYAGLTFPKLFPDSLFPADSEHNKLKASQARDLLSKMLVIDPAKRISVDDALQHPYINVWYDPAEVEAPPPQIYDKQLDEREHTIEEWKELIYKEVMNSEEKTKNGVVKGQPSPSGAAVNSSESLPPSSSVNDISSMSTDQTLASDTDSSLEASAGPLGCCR

Sequence of Platelet-derived growth factor receptor alpha (Homo sapiens) (P16234 whole entry): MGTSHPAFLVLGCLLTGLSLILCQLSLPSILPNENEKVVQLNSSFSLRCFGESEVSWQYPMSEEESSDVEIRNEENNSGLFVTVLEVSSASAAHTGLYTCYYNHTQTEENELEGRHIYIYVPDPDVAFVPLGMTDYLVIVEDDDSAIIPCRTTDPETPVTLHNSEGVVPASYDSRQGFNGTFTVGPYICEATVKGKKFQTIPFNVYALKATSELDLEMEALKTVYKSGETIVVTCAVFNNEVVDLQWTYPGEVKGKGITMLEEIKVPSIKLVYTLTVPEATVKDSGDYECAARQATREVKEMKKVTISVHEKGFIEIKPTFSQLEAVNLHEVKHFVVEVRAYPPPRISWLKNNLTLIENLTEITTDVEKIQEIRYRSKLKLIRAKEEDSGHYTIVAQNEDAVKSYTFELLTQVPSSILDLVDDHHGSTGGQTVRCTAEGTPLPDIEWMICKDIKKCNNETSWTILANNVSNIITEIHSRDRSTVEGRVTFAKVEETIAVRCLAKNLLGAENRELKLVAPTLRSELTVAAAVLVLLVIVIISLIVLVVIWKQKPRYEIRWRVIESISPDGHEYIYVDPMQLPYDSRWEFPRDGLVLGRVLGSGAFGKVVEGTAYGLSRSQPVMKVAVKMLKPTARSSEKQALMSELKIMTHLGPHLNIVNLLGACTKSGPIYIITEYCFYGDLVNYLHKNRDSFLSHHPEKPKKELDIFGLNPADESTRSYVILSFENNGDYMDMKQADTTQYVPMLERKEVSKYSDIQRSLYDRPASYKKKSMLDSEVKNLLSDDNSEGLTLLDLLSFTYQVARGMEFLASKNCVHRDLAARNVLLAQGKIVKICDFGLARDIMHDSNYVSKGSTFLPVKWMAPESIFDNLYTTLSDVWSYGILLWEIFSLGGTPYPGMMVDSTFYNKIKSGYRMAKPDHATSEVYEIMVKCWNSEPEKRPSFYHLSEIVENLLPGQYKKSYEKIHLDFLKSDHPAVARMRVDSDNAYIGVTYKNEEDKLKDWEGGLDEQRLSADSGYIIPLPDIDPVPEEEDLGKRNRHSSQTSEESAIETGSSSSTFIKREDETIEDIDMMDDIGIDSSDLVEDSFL
Sequence of MAP/microtubule affinity-regulating kinase 3 (Homo sapiens) (P27448 whole entry, looked up): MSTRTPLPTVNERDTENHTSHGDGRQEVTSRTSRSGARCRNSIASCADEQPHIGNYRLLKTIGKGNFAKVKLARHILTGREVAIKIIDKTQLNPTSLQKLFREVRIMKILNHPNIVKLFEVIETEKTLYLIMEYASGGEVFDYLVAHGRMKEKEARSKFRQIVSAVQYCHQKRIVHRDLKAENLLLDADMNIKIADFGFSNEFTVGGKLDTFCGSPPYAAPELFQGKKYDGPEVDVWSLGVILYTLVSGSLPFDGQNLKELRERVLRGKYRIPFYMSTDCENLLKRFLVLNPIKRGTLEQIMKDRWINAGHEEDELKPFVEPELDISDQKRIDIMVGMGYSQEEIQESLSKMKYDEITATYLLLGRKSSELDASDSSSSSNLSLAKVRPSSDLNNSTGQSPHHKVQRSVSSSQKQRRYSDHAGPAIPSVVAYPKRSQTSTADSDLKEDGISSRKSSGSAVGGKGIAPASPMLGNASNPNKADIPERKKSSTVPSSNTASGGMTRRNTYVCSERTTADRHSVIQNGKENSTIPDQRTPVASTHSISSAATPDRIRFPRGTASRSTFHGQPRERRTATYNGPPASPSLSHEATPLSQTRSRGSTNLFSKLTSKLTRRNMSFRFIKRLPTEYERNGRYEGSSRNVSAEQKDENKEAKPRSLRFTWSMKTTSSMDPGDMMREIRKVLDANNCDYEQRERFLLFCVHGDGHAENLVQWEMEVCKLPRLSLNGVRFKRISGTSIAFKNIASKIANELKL
Sequence of Serine/threonine-protein kinase PAK 2 (Homo sapiens) (Q13177 whole entry): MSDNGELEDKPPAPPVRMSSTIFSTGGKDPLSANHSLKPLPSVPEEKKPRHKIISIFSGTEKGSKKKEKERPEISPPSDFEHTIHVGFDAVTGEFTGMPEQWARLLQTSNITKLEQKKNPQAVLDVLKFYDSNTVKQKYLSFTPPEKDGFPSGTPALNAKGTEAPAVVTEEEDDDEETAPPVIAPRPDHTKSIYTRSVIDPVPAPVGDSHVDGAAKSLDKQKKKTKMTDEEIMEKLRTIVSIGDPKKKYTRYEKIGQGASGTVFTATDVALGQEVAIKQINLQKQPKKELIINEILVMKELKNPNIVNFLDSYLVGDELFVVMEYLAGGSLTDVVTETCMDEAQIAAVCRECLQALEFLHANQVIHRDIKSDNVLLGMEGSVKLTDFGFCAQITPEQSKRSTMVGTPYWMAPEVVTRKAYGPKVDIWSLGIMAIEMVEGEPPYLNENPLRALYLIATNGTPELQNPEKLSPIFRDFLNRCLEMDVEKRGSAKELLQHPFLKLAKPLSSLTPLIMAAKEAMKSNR
Sequence of Calcium/calmodulin-dependent protein kinase type 1G (Homo sapiens) (Q96NX5 whole entry): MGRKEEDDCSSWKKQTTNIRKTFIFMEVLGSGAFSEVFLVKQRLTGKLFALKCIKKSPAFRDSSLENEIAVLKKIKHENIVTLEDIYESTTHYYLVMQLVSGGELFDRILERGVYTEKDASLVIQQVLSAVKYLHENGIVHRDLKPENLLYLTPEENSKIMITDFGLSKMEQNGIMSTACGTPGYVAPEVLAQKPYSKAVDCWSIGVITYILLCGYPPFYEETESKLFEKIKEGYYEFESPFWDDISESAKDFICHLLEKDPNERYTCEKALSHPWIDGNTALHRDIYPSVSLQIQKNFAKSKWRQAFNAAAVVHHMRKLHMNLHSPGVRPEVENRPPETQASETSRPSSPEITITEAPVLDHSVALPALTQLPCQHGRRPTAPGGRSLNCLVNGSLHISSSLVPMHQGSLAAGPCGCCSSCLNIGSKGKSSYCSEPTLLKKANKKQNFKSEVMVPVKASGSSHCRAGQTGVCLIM

Structure (SMILES): O=C(N[C@@H](C1CC1)C(F)(F)F)c1cc(-c2cnn3cc(-c4ccc(F)cc4)cnc23)cs1
- inhibition [1]: 0%
- inhibition [2]: 26%
- fold change (FC) [3]: 0

Structure (SMILES): CC(C)[C@H](NC(=O)c1cc(-c2cnn3cc(-c4ccc(OCCN5CCCCC5)cc4)cnc23)cs1)C(F)(F)F
- fold change (FC) [4]: 0.72
- inhibition [5]: 5%
- inhibition [6]: 3%
- inhibition [7]: 0%

Structure (SMILES): CNC(=O)c1ccccc1Oc1nc(Nc2cc(OC)c(OC)c(OC)c2)ncc1Br
- inhibition [8]: 3%

Source: ChEMBL document CHEMBL5653631, “A Potent and Selective ULK1 Inhibitor Suppresses Autophagy and Sensitizes Cancer Cells to Nutrient Stress” (iScience, 2018)
